Values quoted from earlier work as cited in US6107321A, “Diazabicyclooctane derivatives having selective 5-HT1Dalpha agonist activity” (Merck Sharp & Dohme Ltd., priority 1995, dated 2000).

Experiments:
humans = conditions: therapeutic doses
[1] = tested on: human 5-HT1D.sbsb.α and 5-HT1D.sbsb.β receptor subtypes; conditions: cf. WO-A-91/17174, Table 1

## CNS(=O)(=O)Cc1ccc2[nH]cc(CCN(C)C)c2c1 [sumatriptan]
humans
  adverse cardiovascular events: certain adverse cardiovascular events
[1]
  discrimination between the human 5-HT1Dα and 5-HT1Dβ receptor subtypes: barely discriminates
